Measured values published in publication PMC4700268 (Frontiers in Pharmacology, 2016).

Assays:
[1] = biological target: T1, hOCT2 (Homo sapiens, UniProt O15244); test: Inhibition of [3H]MPP+ uptake in hOCT2 transfected MDCK II cells; format: in vitro ADME; conditions: 1 μM [3H]MPP+, ETV 0–2000 μM, 2 min
T1 construct: host or cells: MDCK II cells, transient transfection
T1 sequence (O15244 1-555): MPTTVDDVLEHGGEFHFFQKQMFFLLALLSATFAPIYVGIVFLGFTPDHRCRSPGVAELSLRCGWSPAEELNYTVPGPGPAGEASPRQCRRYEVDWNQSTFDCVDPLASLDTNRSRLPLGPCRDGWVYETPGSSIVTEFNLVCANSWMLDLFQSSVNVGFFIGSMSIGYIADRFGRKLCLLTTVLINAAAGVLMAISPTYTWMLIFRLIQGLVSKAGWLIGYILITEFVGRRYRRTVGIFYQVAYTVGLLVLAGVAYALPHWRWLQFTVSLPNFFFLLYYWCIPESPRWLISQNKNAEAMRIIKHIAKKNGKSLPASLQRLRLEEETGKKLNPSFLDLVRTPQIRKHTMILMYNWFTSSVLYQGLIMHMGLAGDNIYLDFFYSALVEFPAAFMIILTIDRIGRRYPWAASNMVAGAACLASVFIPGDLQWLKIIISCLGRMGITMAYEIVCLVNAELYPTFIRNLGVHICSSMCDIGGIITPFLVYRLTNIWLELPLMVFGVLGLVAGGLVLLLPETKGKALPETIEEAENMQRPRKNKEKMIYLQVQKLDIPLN
Method: Inhibitory transport assays were carried out in 24-well plates as described previously ([Mandikova et al., 2013]). Transport assays in HeLa cells transiently transfected with the hOAT1 expression construct were performed 48 h after transfection. Transport assays in MDCK II cells transiently transfected with hOCT2, hCNT2 or hCNT3 were performed 24 h after transfection. The cultivation medium was removed and the cells were washed with transport solution and preincubated for 10 min at 37°C. The standard radiolabeled substrate or tested radioactive antiviral substance dissolved in transport solution was added to the cells and incubated for 2 min. […] After the designated time period, the incubation was stopped by washing the cells twice with ice-cold solution containing 137 mM NaCl and 10 mM HEPES, pH 7.4. The cells were disintegrated with 0.1 mL of Triton X 0.5% in 100 mM NaOH for 1 h. […] IC50 values were calculated using non-linear regression analysis using GraphPad Prism software (version 6).

[2] = biological target: T2, hCNT2 (Homo sapiens, UniProt O43868); test: Inhibition of [3H]uridine uptake in hCNT2 transfected MDCK II cells; format: in vitro ADME; design: host or cells: MDCK II cells, transient transfection; conditions: 1 μM [3H]uridine, MDCK II cells transiently transfected with hCNT2, 2 min, 37°C; read-out: IC50, inhibition of hCNT2 mediated transport
T2 sequence (O43868 1-658): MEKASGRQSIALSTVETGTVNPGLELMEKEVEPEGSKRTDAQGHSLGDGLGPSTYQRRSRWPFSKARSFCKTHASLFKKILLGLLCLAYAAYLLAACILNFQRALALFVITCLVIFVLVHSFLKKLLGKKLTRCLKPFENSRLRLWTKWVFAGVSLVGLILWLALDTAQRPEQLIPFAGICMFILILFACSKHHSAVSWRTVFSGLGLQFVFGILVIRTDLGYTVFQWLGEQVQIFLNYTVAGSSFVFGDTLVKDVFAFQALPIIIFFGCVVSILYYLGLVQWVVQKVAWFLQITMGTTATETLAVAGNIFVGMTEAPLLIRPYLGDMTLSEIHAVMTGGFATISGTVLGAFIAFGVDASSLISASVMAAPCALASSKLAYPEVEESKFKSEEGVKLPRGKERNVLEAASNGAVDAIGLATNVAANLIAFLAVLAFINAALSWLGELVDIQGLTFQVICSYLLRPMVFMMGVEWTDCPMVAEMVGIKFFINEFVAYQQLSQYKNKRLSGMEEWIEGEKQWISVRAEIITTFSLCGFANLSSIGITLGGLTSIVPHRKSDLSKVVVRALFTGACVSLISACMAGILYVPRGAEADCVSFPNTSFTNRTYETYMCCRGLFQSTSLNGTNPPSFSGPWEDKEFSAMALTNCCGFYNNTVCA
Method: Inhibitory transport assays were carried out in 24-well plates as described previously ([Mandikova et al., 2013]). Transport assays in HeLa cells transiently transfected with the hOAT1 expression construct were performed 48 h after transfection. Transport assays in MDCK II cells transiently transfected with hOCT2, hCNT2 or hCNT3 were performed 24 h after transfection. The cultivation medium was removed and the cells were washed with transport solution and preincubated for 10 min at 37°C. The standard radiolabeled substrate or tested radioactive antiviral substance dissolved in transport solution was added to the cells and incubated for 2 min. [^3H]PAH (1 μM) was used as a prototypical substrate for OATs, [^3H]MPP^+ (1 μM) for OCTs and [^3H]uridine (1 μM) for CNTs. […] After the designated time period, the incubation was stopped by washing the cells twice with ice-cold solution containing 137 mM NaCl and 10 mM HEPES, pH 7.4. The cells were disintegrated with 0.1 mL of Triton X 0.5% in 100 mM NaOH for 1 h.
IC50 values were calculated using non-linear regression analysis using GraphPad Prism software (version 6).

Inhibitory interaction with hOCT2 [1]: No interaction
IC50 [2]: 242 µM
SMILES: C=C1[C@H](CO)[C@@H](O)C[C@@H]1n1cnc2c(=O)[nH]c(N)nc21 [ETV, Entecavir]
